Measured values as given in patent US9526721B2, “Tetrahydroprotoberbine compounds and uses thereof in the treatment of neurological, psychiatric and neurodegenerative diseases” (priority 2012, dated 2016).
Read-outs that look alike come from different tables or passages of the source. Marks after values point to notes of the source that are not given here.

Assays:
[1] = molecular target: T1, D2L (Homo sapiens, UniProt P14416); assay: Receptor binding, dopamine D2L; settings: present data; comparison ligand 0.16 nM Spiperone; read-out: D2L (Ki)
T1 construct: host or cells: CHO cells
Protocol: (§1) All receptors tested were heterologously expressed CHO cells and IC50 values were determined by a non-linear, least squares regression analysis using MathIQ (ID Business Solution Ltd, UK). Ki was calculated using the equation of Cheng and Prusoff (1973, Biochem. Pharmacol 22:23099-3108) derived from the observed IC50 of the tested compound, the concentration of radioligand employed in the assay, and the historical values for the Kd of the ligand (obtained experimentally at MDS Pharma Services).
as §1, with “receptors” for “receptors tested”, “UK). K1” for “UK). Ki”, “calculated (Y.” for “calculated using the equation of”, “Cheng &” for “Cheng and”, “Prusoff 1973)” for “Prusoff (1973, Biochem. Pharmacol 22:23099-3108) derived”

[2] = system: D1/D2; assay: D1/D2 affinity ratio; type: binding; settings: present data
Protocol: as §1, with “receptors” for “receptors tested”, “UK). K1” for “UK). Ki”, “calculated (Y.” for “calculated using the equation of”, “Cheng &” for “Cheng and”, “Prusoff 1973)” for “Prusoff (1973, Biochem. Pharmacol 22:23099-3108) derived”

[3] = Catalepsy (bar test); type: in vivo, rat; settings: rat, in vivo; present data; SC, 45 min time point
Protocol: (§2) Testing occurred in a plexiglas box (28 cm×45 cm×20 cm) containing a horizontal steel bar located 8 cm above floor level. […] After injection animals were returned to the test box and catalepsy testing occurred at 1, 15, 30, and 45 minutes after injection. Testing at each time point lasted 2 min after the forepaws of each rat was placed on the bar. Behavior was recorded with a video camera (Cohu, Poway, Calif.) and scored off-line. The cumulative time spent immobilized with both forelimbs on the horizontal bar was scored for each 2 min test epoch. Videos selected at random were scored independently by a second observer and a high inter-rater reliability was observed (R^2=0.93, F=393.4, p<0.05).
(§3) Catalepsy testing was conducted as described in Example 12.

[4] = system: rats; assay: Catalepsy (bar test); type: in vivo, rat
Protocol: as §2, §3

[5] = system: rats; assay: Latent inhibition; type: in vivo, rat
Protocol: Sensitization: Animals were removed from the colony and taken to a holding room where they received either IP d-AMPH or saline every Monday, Wednesday, and Friday. Doses started at 1 mg/kg and increased 1 mg/kg each week over 5 weeks to 5 mg/kg. 25 days after the induction phase, behavioral sensitization was assessed over 3 days in locomotor chambers (plexiglass box, 40 cm×40 cm×40 cm) where speed and distance traveled were recorded using Noldus Ethovision XT (Noldus, Leesburg, Va.). The first day consisted of a 2 hr acclimation session, and prior to counter balanced injections of either 0.5 mg/kg d-AMPH or saline on days 2 and 3 animals were acclimated for 1 hr. Experiments were run in two separate cohorts of 30 animals to minimize the time between testing sensitization and LI.
Latent Inhibition: LI tests were performed in rats treated with 1.0 mg/kg acute d-AMPH, sensitized rats, and drug-naive rats. LI testing began 5 days post-challenge of the escalating dose regime. Animals in both conditions (chronic saline or sensitized) were randomly assigned to either non-pre-exposed (NPE) or pre-exposed (PE) groups. Testing took place over 3 consecutive days. […] Animals in the PE group received 50 presentations of the CS (10 sec duration) per day at a variable interval for the first two days. Animals in the NPE group were placed in the chamber for an equal time as the PE animals. Conditioning (COND) consisted of 100 CS-US pairings. Latency to cross into the other compartment and the number of total beam breaks were recorded. Drug-naïve animals receiving acute 1.0 mg/kg AMPH were injected IP 45 min before the COND trial.
The effects of the two individual enantiomers of govadine on latent inhibition (LI) were also tested as described in Example 12.

[6] = molecular target: T2, D1 (Homo sapiens, UniProt P21728); assay: Receptor binding, dopamine D1; set-up: host or cells: CHO cells; settings: present data; comparison ligand 0.14 nM SCH-23390; read-out: D1 (Ki)
Protocol: as §1
as §1, with “receptors” for “receptors tested”, “UK). K1” for “UK). Ki”, “calculated (Y.” for “calculated using the equation of”, “Cheng &” for “Cheng and”, “Prusoff 1973)” for “Prusoff (1973, Biochem. Pharmacol 22:23099-3108) derived”

[7] = system: rats; assay: Amphetamine-induced locomotion (AIL); settings: Rattus norvegicus, ip, 1 h, read-out: AIL (ED50)
Protocol: Animals were habituated to the locomotor arena for 1 hr on 4 consecutive days prior to testing. Locomotor activity was assessed on day 1 of habituation and treatment groups were assigned in a counter balanced fashion depending on locomotor activity on this day.
After d-AMPH/SAL injection, distance travelled was assessed for 1 hr. Distance travelled was recorded with Noldus Ethovision XT (Noldus, Leesburg, Va.) and analyzed off-line.
Amphetamine induced locomotion (AIL): Animals were habituated to locomotor arenas for 1 hr on 4 consecutive days prior to testing. Locomotor activity was assessed on day 1 of habituation and treatment groups were assigned in a counter-balanced manner determined by distance traveled on day 1. […] Distance traveled was recorded with Noldus Ethovision XT (Noldus, Leesburg, Va.) and analyzed off-line.

[8] = system: rats; assay: Conditioned avoidance responding (CAR)
Protocol: Conditioned avoidance responding (CAR) was performed in a two-way avoidance procedure with drug naive rats in four shuttle boxes (Med Associates, Vt., USA) each consisting of two compartments separated by an open door. Each compartment contained a wall-mounted speaker, house light and 5 photocells to detect the location of the animal. All experimental protocols and data acquisition were controlled by custom programs written in MED-PC.
Before training, each animal received two acclimation sessions lasting 30 min with only the house light illuminated. […] Pairings of the conditioned stimulus (CS) (white noise, ˜60 dB) and the unconditioned stimulus (US) (footshock, 0.75 mA) were presented at random intervals with a mean of 60 sec. The CS was presented for 10 sec. During this time, if the animal moved to the opposite side of the box, the white noise was silenced, no foot shock delivered, and an avoidance response was scored. Upon termination of the 10 sec tone, if the animal had not moved to the opposite side of the box, a foot-shock was administered for 2 sec. […] Failure to avoid or escape constituted a response failure and was scored accordingly. After reaching a criterion of 90% avoidances for a block of 20 trials, usually achieved with ˜100 CS-US pairings, each animal advanced to the drug-testing phase. Animals not meeting the criterion by 120 pairings were excluded from the study.
Pairings were presented just as during training and were scored in the same fashion. The test trial consisted of 100 CS-US pairings.

[9] = system: rats; assay: Microdialysis of prefrontal cortex and nucleus accumbens;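 note: dialysate collected every 10 min from freely moving rats, analysed by HPLC with electrochemical detection, after four stable baseline samples (under 10% variation) preceding drug dosing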
Protocol: Rats received subcutaneous injections of an analgesic (ketoprofen 0.05 mL or buprenorphine, 0.1 mL) and sterile saline (0.9% NaCl, ˜3 mL). Once shaved and cleaned, the heads were secured in the stereotaxic frame in flat skull position for bilateral implantation of stainless steel microdialysis guide cannulae (19 gauge×15 mm) in the nucleus accumbens (NAc) (from bregma +1.7 mm anterior and ±1.1 mm medial; from dura −1.0 mm ventral) or medial prefrontal cortex (mPFC) (+3.0 mm anterior, ±0.6 mm medial; −1.0 mm ventral). […] Rats were allowed to rest with heat support until they regained consciousness, and then given a one-week recovery period.
Microdialysis probes were assembled 1-2 days prior to microdialysis experiments. Probes were concentric in design, constructed from Filtral 12 AN69HF semi-permeable hollow fibres (2 mm length, 340 μm OD×4 mm, 65 kDalton molecular weight cut-off; Hospal, Neurnberg, Germany) and silica inlet-outlet lines (75/150 um ID/OD).
The day prior to microdialysis experiments, probes were connected to an Instech dual-channel liquid swivel (Plymouth Meeting, Pa.) and flushed with artificial cerebrospinal fluid (aCSF). […] Following DA recovery tests, probes were implanted via the guide cannulae (dialysis membrane spanned −4.8 to −6.8 mm ventrally for NAc; −1.6 to −3.6 mm for mPFC). Rats remained in the testing chamber overnight (14-16 hr) with aCSF perfusing continuously through the probes at 1 μL/min In the morning, microdialysis samples were collected at 10 min intervals and assayed for DA, DOPAC, homovanillic acid (HVA) and 5-HIAA content. Once baseline levels were determined to be stable for four consecutive samples (less than 10% fluctuation), the drug treatment phase of each experiment was initiated.
Microdialysis samples were analyzed immediately after collection using high pressure liquid chromatography (HPLC) with electrochemical detection. […] The mobile phase [70 mM sodium acetate buffer, 40 mg/L EDTA and 50 mg/L of sodium dodecyl sulfate (adjustable), pH 4.0, 10% methanol] flowed through the system at 0.17 mL/min EZChrome Elite software (Scientific Software, Pleasanton, Calif.) was used to acquire and analyze chromatographic data.
After the experiments, rats were deeply anesthetized, brains were removed and stored in 20% w/v sucrose and 4% v/v paraformaldehyde. Brains were sliced into 50 um coronal sections, stained with cresyl violet and examined for probe placement.
Microdialysis probes (2 mm active membrane) were implanted in the NAc and mPFC ˜16 hrs prior to start of the experiment and continuously perfused aCSF.

[10] = molecular target: T1, D2L; settings: Xu, S. X. et al., 1989; comparison ligand 0.16 nM Spiperone; cited from earlier work
[11] = system: D1/D2; settings: cited from earlier work
[12] = system: rats; settings: Natesan et al., 2008; cited from earlier work
[13] = system: rats; settings: Natesan et al., 2008; listed as 1-SPD; cited from earlier work
[14] = system: rats; settings: Natesan et al., 2008; cited from earlier work; remark: listed apart in the source
[15] = molecular target: T2, D1; settings: read-out: D1 (Ki); Xu, S. X. et al., 1989; comparison ligand 0.14 nM SCH-23390; cited from earlier work
[16] = system: rats; assay: Temporal order recognition (radial arm maze); settings: 1.0 mg/kg govadine isomers, 5.0 mg/kg clozapine
Protocol: The task exploits a rat's natural preference for novel locations. Each animal received 3 separate trials where access to two arms of an eight arm radial arm maze was granted. During the first trial, two arms were selected at random for exploration, and animals were allowed to explore these arms for 2 min After this time, they were taken off the maze and returned to their home cage. 1 hour later they were placed back on the maze and two new arms were randomly selected for 2 min of exploration.
Time spent in each arm (recent and old) was recorded as well as total distance traveled and the total number of arm entries in Noldus EthoVision 3.1 (Leesburg, Va.).

[17] = microdialysis, nucleus accumbens
[18] = microdialysis, prefrontal cortex

T2 sequence (P21728 whole entry): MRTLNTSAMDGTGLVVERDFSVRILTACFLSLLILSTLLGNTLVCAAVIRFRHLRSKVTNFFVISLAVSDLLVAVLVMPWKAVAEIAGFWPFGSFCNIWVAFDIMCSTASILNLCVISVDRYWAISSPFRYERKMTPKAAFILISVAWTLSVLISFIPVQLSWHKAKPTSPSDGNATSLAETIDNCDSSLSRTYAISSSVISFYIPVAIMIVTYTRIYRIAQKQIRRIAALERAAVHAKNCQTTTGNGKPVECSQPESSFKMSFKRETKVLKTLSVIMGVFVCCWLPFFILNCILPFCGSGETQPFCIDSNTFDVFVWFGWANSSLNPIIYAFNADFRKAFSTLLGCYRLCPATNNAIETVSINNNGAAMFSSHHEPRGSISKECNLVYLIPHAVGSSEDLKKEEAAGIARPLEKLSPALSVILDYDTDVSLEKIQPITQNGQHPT
T1 sequence (P14416 whole entry): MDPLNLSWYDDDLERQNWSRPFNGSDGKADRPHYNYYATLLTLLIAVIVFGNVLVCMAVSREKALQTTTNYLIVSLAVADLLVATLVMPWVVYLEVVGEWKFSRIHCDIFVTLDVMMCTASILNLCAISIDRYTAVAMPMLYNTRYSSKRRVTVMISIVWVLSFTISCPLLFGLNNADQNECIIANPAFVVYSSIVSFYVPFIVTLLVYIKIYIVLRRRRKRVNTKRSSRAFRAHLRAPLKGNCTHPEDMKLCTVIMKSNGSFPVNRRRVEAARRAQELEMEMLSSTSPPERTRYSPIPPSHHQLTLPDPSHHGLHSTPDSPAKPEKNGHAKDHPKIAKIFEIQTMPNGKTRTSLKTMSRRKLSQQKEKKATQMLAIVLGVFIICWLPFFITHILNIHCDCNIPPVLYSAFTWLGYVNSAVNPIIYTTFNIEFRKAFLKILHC

## COc1cc2c(cc1O)CN1CCc3cc(OC)c(O)cc3C1C2 (racemic) [dl-govadine]
[1]
  Ki: 0.283 µM
[2]
  D1/D2: 0.023#
[3]
  ED50 at 45 min: 4.7 mg/kg
[4]; 1.0 mg/kg SC
  catalepsy observed: mild motor suppression
[4]; 6.0 mg/kg SC
  catalepsy observed: Strong and extended catalepsy
[4]; SC, across doses tested
  catalepsy (immobilized contact time): dose-dependent increase
[5]; 1.0 mg/kg SC before each pre-exposure session
  latent inhibition in non-sensitized animals: no subsequent effect on LI
[5]; 1.0 mg/kg SC before each pre-exposure, 5-week escalating d-AMPH
  latent inhibition in d-AMPH sensitized animals: restored LI to levels observed in controls
[5]; treatment before each pre-exposure, 1.0 mg/kg d-AMPH before conditioning
  latent inhibition in acute d-AMPH-treated animals: restored LI
[6]
  Ki: 0.0067 µM
[7]
  ED50 at […]: 1.7 mg/kg
[8]; Rattus norvegicus, sc, 20 min, read-out: CAR (ED50), present data, SC, 20 min post-injection
  ED50: 0.723 mg/kg
[8]; SC, 100 CS-US pairings
  escapes in CAR: increase in escapes
  suppression of conditioned avoidance responding (avoidances): dose-dependently suppressed avoidances
[8]; present data, SC, 20 min post-injection
  CAR (ED50): 0.720# mg/kg
[8]; repeated treatment, FIG. 14
  effect of repeated treatment in CAR: Neither of these effects was observed
[9]; 1 mg/kg, Example 15
  DA efflux in NAc and mPFC compared to control: enhanced DA efflux
[9]; [17]
  5-HIAA in NAc: No increase
  DOPAC in NAc: Increases
  HVA in NAc: Increases
  dopamine level in NAc: increased
[9]; [18]
  5-HIAA in PFC: No increase
  DOPAC in PFC: Increases
  HVA in PFC: Increases
  dopamine level in PFC: increased

## COc1cc2c(cc1O)[C@@H]1Cc3ccc(O)c(OC)c3CN1CC2 [l-Stepholidine, l-stepholidine]
[10]
  Ki: 0.085 µM
[11]; Natesan et al., 2008
  D1/D2: 0.850*
[11]; Xu, S. X. et al., 1989
  D1/D2: 0.150**
[12]
  AIL (ED50): 2.36* mg/kg
[13]
  CAR (ED50): 0.27 mg/kg
[14]
  Catalepsy (ED50): 3.6 mg/kg
[15]
  Ki: 0.013 µM

## CN1CCN(C2=Nc3cc(Cl)ccc3Nc3ccccc32)CC1 [Clozapine, reference compound]
[16]; 45 min. delay
  Arm Entries: 7.0 ± 1.9
  Distance Travelled: 1286 ± 177
[16]; 4 hr. delay
  Arm Entries: 6.0 ± 1.6
  Distance Travelled: 1098 ± 74
